Measurements reported in PubChem BioAssay (NCI).
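Exposure lasted 48 hours, with cells grown in 96-well plates and compounds tested at five concentrations. The concentration for 50% growth inhibition is given as GI50. At the TGI there is no net growth.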

Columns and labels:
Test in all cases: DTP human tumour cell line panel, 48 h
PC-3 prostate = test system: PC-3 prostate
A549 NSCLC = test system: A549 NSCLC
HL-60(TB) leukemia = test system: HL-60(TB) leukemia
T-47D breast = test system: T-47D breast
SK-MEL-2 melanoma = test system: SK-MEL-2 melanoma
SF-268 CNS = test system: SF-268 CNS
DU-145 prostate = test system: DU-145 prostate
EKVX NSCLC = test system: EKVX NSCLC
SNB-19 CNS = test system: SNB-19 CNS
MDA-MB-435 = test system: MDA-MB-435
KM12 colon = test system: KM12 colon
MDA-MB-468 breast = test system: MDA-MB-468 breast
UACC-257 melanoma = test system: UACC-257 melanoma
NCI-H460 lung = test system: NCI-H460 lung
HCC-2998 colon = test system: HCC-2998 colon
SF-539 CNS = test system: SF-539 CNS
LOX IMVI melanoma = test system: LOX IMVI melanoma
786-0 renal = test system: 786-0 renal
HCT-15 colon = test system: HCT-15 colon
HOP-62 NSCLC = test system: HOP-62 NSCLC
K-562 leukemia = test system: K-562 leukemia
MCF7 breast = test system: MCF7 breast
HT29 colon = test system: HT29 colon
UACC-62 melanoma = test system: UACC-62 melanoma
SR leukemia = test system: SR leukemia
NCI-H226 lung = test system: NCI-H226 lung
OVCAR-3 ovarian = test system: OVCAR-3 ovarian

`COc1cc(/C=C/C(=O)c2cnn(-c3cc(=O)[nH]c4ccc(Br)cc34)c2C)cc(OC)c1OC` gave a GI50 (PC-3 prostate) of 5.19 µM, a TGI (PC-3 prostate) of over 100 µM and a GI50 (A549 NSCLC) of 3.52 µM. For the same compound, the TGI (A549 NSCLC) was over 100 µM, the GI50 (HL-60(TB) leukemia) was 3 µM and the TGI (HL-60(TB) leukemia) was over 100 µM. For the same compound, the GI50 (T-47D breast) was 3.06 µM, the TGI (T-47D breast) was 18.8 µM and the GI50 (SK-MEL-2 melanoma) was 3.52 µM. For the same compound, the TGI (SK-MEL-2 melanoma) was 12.2 µM, the GI50 (SF-268 CNS) was 3.76 µM and the TGI (SF-268 CNS) was over 100 µM. For the same compound, the GI50 (DU-145 prostate) was 3.61 µM, the TGI (DU-145 prostate) was 30.5 µM and the GI50 (EKVX NSCLC) was 2.96 µM. For the same compound, the TGI (EKVX NSCLC) was 13.4 µM, the GI50 (SNB-19 CNS) was 3.25 µM and the TGI (SNB-19 CNS) was 12.6 µM. The GI50 (MDA-MB-435) was 2.72 µM, the TGI (MDA-MB-435) was 8.65 µM and the GI50 (KM12 colon) was 3.48 µM. The TGI (KM12 colon) was 14.6 µM, the GI50 (MDA-MB-468 breast) was 1.93 µM and the TGI (MDA-MB-468 breast) was 5.43 µM. For the same compound, the GI50 (UACC-257 melanoma) was 7.78 µM, the TGI (UACC-257 melanoma) was 48.5 µM and the GI50 (NCI-H460 lung) was 2.39 µM. For the same compound, the TGI (NCI-H460 lung) was 5.37 µM, the GI50 (HCC-2998 colon) was 3.3 µM and the TGI (HCC-2998 colon) was 11 µM. The GI50 (SF-539 CNS) was 2.03 µM, the TGI (SF-539 CNS) was 4.54 µM and the GI50 (LOX IMVI melanoma) was 1.49 µM. It also gave a TGI (LOX IMVI melanoma) of 3.35 µM, a GI50 (786-0 renal) of 3.63 µM and a TGI (786-0 renal) of 14.3 µM. It also gave a GI50 (HCT-15 colon) of 1.71 µM, a TGI (HCT-15 colon) of 3.92 µM and a GI50 (HOP-62 NSCLC) of 3.55 µM. For the same compound, the TGI (HOP-62 NSCLC) was 17.2 µM, the GI50 (K-562 leukemia) was 2.86 µM and the TGI (K-562 leukemia) was over 100 µM. It also gave a GI50 (MCF7 breast) of 2.16 µM, a TGI (MCF7 breast) of 9.06 µM and a GI50 (HT29 colon) of 2.2 µM. It also gave a TGI (HT29 colon) of 5.07 µM, a GI50 (UACC-62 melanoma) of 1.79 µM and a TGI (UACC-62 melanoma) of 4 µM. It also gave a GI50 (SR leukemia) of 2.44 µM, a TGI (SR leukemia) of over 100 µM and a GI50 (NCI-H226 lung) of 2.49 µM. For the same compound, the TGI (NCI-H226 lung) was 7.38 µM, the GI50 (OVCAR-3 ovarian) was 3.45 µM and the TGI (OVCAR-3 ovarian) was 12.1 µM.
